[5mC] = 5-methylcytosine; m = 2'-O-methyl; r = 2'-OH (RNA)
System: fluorescent peptide that mimics phenylalanine synthetase
Assay: Binding of yeast tRNAPhe ASL RNA oligomers to a phenylalanine synthetase peptide mimic
Conditions: compared with the native RNA oligomer or the unmodified RNA oligomer; FIG. 2
Experimental: A set of experiments was conducted to identify an RNA oligomer substrate to be used in an assay to identify substrates for use in identifying inhibitors of tRNA binding to a phenylalanine synthetase from yeast. A peptide was first identified for use as a phenylalanine synthetase mimic. The peptide was labeled with a fluorescent peptide for use in detection in binding assays.
A series of RNA oligomer substrates were also synthesized containing modified nucleotides (FIG. 2).
To determine binding affinity, an assay of ASL for yeast tRNA^phe was prepared varying only in the number of post-transcriptional nucleotide base modifications. This array was probed using a peptide from a phage display library that bound to an ASL containing 3 modifications. The affect of modification on the affinity of a peptide to an RNA substrate-sequence (Sequence A in FIG. 2: 5′-CCAGACUGAAGAUCUGG) (SEQ ID NO: 18) is the primary unmodified yeast ASL^Phe. Sequence B in FIG. 2 (5′-CCAGACmUGm AAGAUm^5CUGG) (SEQ ID NO: 19) is a template ASL sequence indicating the locations of the modified nucleotides for the various combinations of modified nucleotide bases in the mimics of the anticodon stem loop. Sequence C in FIG. 2 (5′-CCAGACmUGmAAm1GAΨm^5CUGG) (SEQ ID NO: 20) is the sequence of the native yeast tRNA^phe. […]

Substance: 5′-CCAGACmUGm AAGAUm^5CUGG (CCAGACUGAAGAUCUGG; sugars from the 5' end r5 m1 r1 m1 r9, [5mC] at 14, backbone not given here; listed as Yersinia enterocolitica)
- affinity for a fluorescent peptide that mimics phenylalanine synthetase: greater affinity
